# Test results reported in patent US20160038651A1, “COMPOUNDS AND COMPOSITIONS FOR DRUG RELEASE” (INTERFACE BIOLOGICS, INC., priority 2013, published 2016).
# Read-outs that look alike come from different tables or passages of the source.
# Columns and labels:
# S. aureus (ATCC 25923) [1] = assay: MIC & MBC determination, standard broth microdilution method; assay type: cell-based; details: for antimicrobial activity: broth microdilution, up to the highest concentration tested; for effect of the combination on the activity of CHX-A: tested in combination with CHX-A
# Description: The antimicrobial efficacy of Compound 2 and drug released from Compound 2 was investigated using a standard broth microdilution method. The minimum inhibitory concentration (MIC) and minimum bactericidal concentration (MBC) were investigated for Compound 2, drug released from Compound 2, triethylene glycol (TEG), Ciprofloxacin hydrochloride (Cipro®HCl), chlorhexidine diacetate (CHX-A), and Compound 2+CHX-A. The MIC is defined as the lowest concentration of an antimicrobial agent that will inhibit visible growth of a microorganism after overnight incubation. The MBC is defined as the lowest concentration of an antimicrobial agent required to kill 99.9% of a microorganism population. This study was carried out using two gram positive bacteria, E. faecalis (ATCC 29212) and S. aureus (ATCC 25923), and two gram negative bacteria, E. coli (ATCC 25922) and P. aeruginosa (ATCC 27853). The test samples were prepared using 2-fold dilutions per well and covered a concentration range at least 2 dilutions above and 2 dilutions below literature MIC values for the microorganisms tested.
# The antimicrobial efficacy of Compound 3 and drug released from Compound 3 investigated using a standard broth microdilution method. The MIC and MBC were investigated for Compound 3, drug released from Compound 3, TEG, Cipro®HCl, CHX-A, and Compound 3+CHX-A. This study was carried out using two gram positive bacteria, E. faecalis (ATCC 29212) and S. aureus (ATCC 25923), and two gram negative bacteria, E. coli (ATCC 25922) and P. aeruginosa (ATCC 27853). The test samples were prepared using 2-fold dilutions per well and covered a concentration range at least 2 dilutions above and 2 dilutions below literature MIC values for the microorganisms tested.
# S. aureus (ATCC 25923) [2] = details: cited from earlier work
# New Zealand rabbits = assay: Intracutaneous Reactivity, ISO 10993-10: 2010; assay type: in vivo; details: 0.2 mL intracutaneous injections, scored after 24, 48, 72 h
# Method: (§1) Compound 2 was dissolved in PBS (9.2×10 mg/mL) and tested for Intracutaneous Reactivity in accordance with ISO 10993-10: 2010 Standard, Biological Evaluation of Medical Devices, Part 10: Tests for Irritation and Skin Sensitization, Pages 11-14. Each rabbit received five sequential 0.2 mL intracutaneous injections along either side of the dorsal mid-line with the test article on one side and the control on the other. Three New Zealand rabbits were used per sample and control. The injection sites were observed and scored for erythema (redness) and edema (swelling) after 24, 48, and 72 h on a scale of 1 to 4.
# as §1, with “Compound 3” for “Compound 2”, “PBS (5.4×10^−2” for “PBS (9.2×10”
# [3] = Drug release in solution (PBS pH 7.4, 37° C., RP-HPLC); assay type: physicochemical; details: 0.1 mg/ml in PBS pH 7.4, 37° C.
# Method: Compound 2 was dissolved in PBS (pH 7.4) at 0.1 mg/ml and placed in incubator at 37° C. At each time point (0, 1, 3, 7, 14, 21, & 28 days), solution was removed from incubator and analyzed for the drug by RP-HPLC using established protocols (FIG. 6). […] The release profile of compound 2 was also evaluated in a device prototype assembly using bovine serum, blood (porcine) or a gel matrix.
# Compound 3 was dissolved in PBS (pH 7.4) at 0.1 mg/ml and placed in incubator at 37° C. At each time point (0, 1, 3, 7, 14, 21, & 28 days), solution was removed from incubator and analyzed for drug by RP-HPLC using established protocols.
# mice = assay: Acute Systemic Toxicity following ISO 10993-11; assay type: in vivo; details: single injection 50 mL/kg per mouse, observed to 72 h
# Method: A single injection dose of 50 mL/kg per mouse (˜1 mL) was administered to 5 mice per test sample.
# [4] = Accelerated drug release in acidic, basic or neutral conditions (RP-HPLC); assay type: physicochemical; details: 37° C.
# Method: Compound 2 was prepared at 10 mg/ml in 0.1 N HCl (final pH ˜4), 0.1 N NaOH (final pH ˜10), and PBS (final pH ˜7). Samples were incubated at 37° C. in acidic, basic, or neutral conditions. At each time point, the drug concentration was quantified by RP-HPLC.
Molecule,"MBC Experimental (S. aureus (ATCC 25923) [1]; S. aureus, Table 4) [µg/mL]","MIC Experimental (S. aureus (ATCC 25923) [1]; S. aureus, Table 4) [µg/mL]","MBC Experimental (S. aureus (ATCC 25923) [1]; S. aureus, Table 5) [µg/mL]","MIC Experimental (S. aureus (ATCC 25923) [1]; S. aureus, Table 5, in µg/mL)",MBC Literature (S. aureus (ATCC 25923) [2]; Table 4) [µg/mL],MIC Literature (S. aureus (ATCC 25923) [2]; Table 4) [µg/mL],MBC Literature (S. aureus (ATCC 25923) [2]; Table 5) [µg/mL],MIC Literature (S. aureus (ATCC 25923) [2]; Table 5) [µg/mL],antimicrobial activity (S. aureus (ATCC 25923) [1]),effect of the combination on the activity of CHX-A (S. aureus (ATCC 25923) [1]),further results
"CC(=O)O.CC(=O)O.NC(=N\CCCCCC/N=C(N)/N=C(\N)Nc1ccc(Cl)cc1)/N=C(\N)Nc1ccc(Cl)cc1 [CHX-A, chlorhexidine diacetate]",1 to 4,1,1 to 4,1,3.9,0.9,3.9,0.9,,,
O=C(O)c1cn(C2CC2)c2cc(N3CCNCC3)c(F)cc2c1=O [Cipro Released from Compound 3],,,1,0.5,,,,,antimicrobial activity consistent with both the Cipro®HCl controls and literature values,,
O=C(OCCOCCOCCOC(=O)c1cn(C2CC2)c2cc(N3CCNCC3)c(F)cc2c1=O)c1cn(C2CC2)c2cc(N3CCNCC3)c(F)cc2c1=O [Compound 2],>78,>78,,,,,,,did not show any antimicrobial activity,did not affect the activity of CHX-A,"irritation (erythema and edema, Intracutaneous Reactivity) (New Zealand rabbits; in PBS 9.2×10 mg/mL): non-irritant; total drug released ([3]; after 28 days): ~8%; signs of toxicity (Acute Systemic Toxicity) (mice; in PBS 4×10^−5-9.7×10^−1 mg/mL, higher dosage): no signs of toxicity; drug release ([4]; 10 mg/ml in 0.1 N HCl (final pH ~4), after 7 days): ~71%; drug release ([4]; 10 mg/ml in 0.1 N NaOH (final pH ~10), in less than 1 day): 100%; drug release ([4]; 10 mg/ml in PBS (final pH ~7), after 7 days): ~2%"
O=C(OCCOCCOCCO)c1cn(C2CC2)c2cc(N3CCNCC3)c(F)cc2c1=O [Compound 3],,,>55.5,>55.5,,,,,did not show any antimicrobial activity,did not affect the activity of CHX-A,"irritation (erythema and edema, Intracutaneous Reactivity) (New Zealand rabbits; in PBS 5.4×10^−2 mg/mL): non-irritant; drug concentration with time (drug release) ([3]; out to at least 28 days): linear increase; signs of toxicity (Acute Systemic Toxicity) (mice; in PBS 8×10^−4-8×10^−2 mg/mL, all concentrations): no signs of toxicity"
"OCCOCCOCCO [TEG, triethylene glycol]",,,>100,>100,,,,,No antimicrobial activity,,"MBC (S. aureus (ATCC 25923) [1]; Staphylococcus aureus, ATCC25923, S. aureus, Table 4, read-out: MBC Experimental): > 100 µg/mL; MIC (S. aureus (ATCC 25923) [1]; Staphylococcus aureus, ATCC25923, S. aureus, Table 4, read-out: MIC Experimental): > 100 µg/mL"
Ciprofloxacin hydrochloride [Cipro*HCl],0.5 to 1,0.25 to 0.5,0.5 to 1,0.25-0.5,0.9,0.5,0.9,0.5,,,
